Here are results for three compounds from patent US20240287123A1 (Victoria Link Limited, priority 2021, published 2024).

The test system of series [1] is HCMV (AD169 strain in HFF cells). Kind of series: CPE (cytopathic effect) assay for HCMV. Type of series: cell-based, Human Cytomegalovirus. How it is done: (§1) Human foreskin fibroblast (HFF) cells prepared from human foreskin tissue were obtained from the University of Alabama at Birmingham tissue procurement facility with approval from its IRB. The tissue was incubated at 4° C. for 4 h in Clinical Medium consisting of minimum essential media (MEM) with Earl's salts supplemented with 10% fetal bovine serum (FBS) (Hyclone, Inc. Logan UT), L-glutamine, fungizone, and vancomycin. Tissue was then placed in phosphate buffered saline (PBS), minced, rinsed to remove the red blood cells, and resuspended in trypsin/EDTA solution. The tissue suspension was incubated at 37° C. and gently agitated to disperse the cells, which were collected by centrifugation. Cells were resuspended in 4 ml Clinical Medium and placed in a 25 cm^2 flask and incubated at 37° C. in a humidified CO2 incubator for 24 h. The media was then replaced with fresh Clinical Medium and the cell growth was monitored daily until a confluent monolayer had formed. The HFF cells were then expanded through serial passages in standard growth medium of MEM with Earl's salts supplemented with 10% FBS, L-glutamine, penicillin, and gentamycin.
(§2) Akata cells were obtained from Louisiana State University, Baton Rouge, LA. The HCMV strain AD169 was obtained from the American Type Culture Collection (ATCC, Manassas, VA). Akata cells latently infected with EBV were obtained from Louisiana State University, Baton Rouge, LA.
(§3) Each experiment that evaluates the antiviral activity of compounds includes both positive and negative control compounds to ensure the performance of each assay. Concurrent assessment of cytotoxicity was also performed for each study in the same cell line and with the same compound exposure.
Assays were performed in monolayers as described.37 Cells were seeded in 384 well plates and incubated for 24 h to allow the formation of confluent monolayers. Dilutions of test drug were prepared directly in the plates and the monolayers infected at a predetermined MOI based on virus used. After incubation, cytopathology was determined by the addition of CellTiter-Glo (CTG) reagent. […] Toxicity was measured using CTG as above.
(In general: Protection from cytopathic effect is a common read-out in antiviral testing.)

Series [2] is described as follows: Cytotoxicity in HFF cells (CellTiter-Glo), concurrent with HCMV assay. Format: cell-based. The following applies: human. How it is done: as §1, with “gentamycin. The cells were passaged routinely and used for assays at or below passage ^10.37,38” for “gentamycin.”
as §3
Assays were performed in monolayers as described.37 Cells were seeded in 384 well plates and incubated for 24 h to allow the formation of confluent monolayers. Dilutions of test drug were prepared directly in the plates and the monolayers infected at a predetermined MOI based on virus used. After incubation, cytopathology was determined by the addition of CellTiter-Glo (CTG) reagent. Concentrations of test compound sufficient to reduce CPE by 50% (EC50) or decrease cell viability by 50% (CC50) were interpolated using standard methods in Microsoft Excel. Toxicity was measured using CTG as above.

Series [3] relates to EBV (Akata/Akata). Put plainly: EBV assay: viral DNA quantification in induced Akata cells. Format: cell-based, Epstein-Barr virus. The following applies: for activity against EBV: cell-based assay, highest concentration tested in primary assays 50 μM; for EC50: human gammaherpesvirus 4, Akata. How it is done: as §2, §3
Assays for EBV were performed by reported methods.^37 Akata cells were induced to undergo a lytic infection with 50 μg/ml of a goat anti-human IgG antibody. Experimental compounds were diluted within plates. The cells were added and incubated for 72 h. Similar plates were initiated without virus induction/addition and used for measuring cytotoxicity by the addition of CTG. For all assays, the replication of the virus was assessed by the quantification of viral DNA. For EBV, primers 5′-[…]-3′ and 5′-CAG TTC CTC GCCTTAGGTTG-3 amplified a fragment corresponding to coordinates 96802-97234 in EBV genome (AJ507799). Compound concentrations sufficient to reduce genome copy number by 50% were calculated from experimental data as well as compound cytotoxicity.

The nature of series [4]: Cytotoxicity in Akata cells (CTG), concurrent with EBV assay. Format: cell-based. The following applies: human, Akata cells (without virus induction), Table 1. How it is done:
as §3
Assays for EBV were performed by reported methods.^37 Akata cells were induced to undergo a lytic infection with 50 μg/ml of a goat anti-human IgG antibody. Experimental compounds were diluted within plates. The cells were added and incubated for 72 h. Similar plates were initiated without virus induction/addition and used for measuring cytotoxicity by the addition of CTG. For all assays, the replication of the virus was assessed by the quantification of viral DNA. […] Compound concentrations sufficient to reduce genome copy number by 50% were calculated from experimental data as well as compound cytotoxicity.

Series [5] concerns HIVADA. Kind of series: HIV p24 alphaLISA in infected monocyte derived macrophages. Type of series: cell-based, Human Immunodeficiency Virus. The following applies: 100 μM, infected MDM, days 2-7, compared with DMSO control. How it is done:
Primary human MDMs were cultured from peripheral blood mononuclear cells and pre-treated for 24 h with ddhC (100 μM), compound 8 (100 μM), compound 21 (100 μM), emtricitabine control (15 μM, 10 μM, 1 μM, 0.1 μM), or the drug vehicle, DMSO. MDM were then infected with HIVADA in the presence of these compounds and treated daily (with compound), while culture supernatants were collected to quantify levels of HIV p24, a viral capsid protein, on days 2-7 of infection.
Leukopaks from healthy donors were obtained from the New York Blood Center and processed by Ficoll gradient centrifugation to isolate peripheral blood mononuclear cells (PBMC). These PBMC were cultured adherently into monocyte derived macrophages (MDM), according to published protocols, on 60 mm dishes for 6 days with 10-20 ng/ml macrophage colony stimulating factor (M-CSF). MDM were pre-treated with ddhC, compound 8, compound 21, emtricitabine (Cat. No .: 10071), or DMSO vehicle at indicated concentrations for 24 hours (NIH AIDS Reagent Program, Bethesda, MD). Cells were left uninfected or infected for 24 h in the presence of one of the compounds listed above with 20 ng/mL HIVADA, a macrophage-tropic HIV strain originally derived from a person with HIV (NIH). Media was changed daily with the mentioned compounds added each time, and supernatants were collected on days 2, 3, 4, 5, 6, and 7 of infection. Each treatment condition was analyzed in duplicate plates per experiment.
Supernatant samples were analyzed for the viral capsid protein, HIV p24, by a sensitive p24 alphaLISA according to the manufacturer's protocol (Perkin-Elmer, Waltham, MA). Treatment conditions were analyzed in duplicate plates, and each supernatant was analyzed in duplicate on a 96-well alphaLISA plate. These were then fit to a sigmoid standard curve to extrapolate HIV p24 levels in pg/mL within the assay limits of detection.
A general note: In Alpha technology, singlet oxygen from a donor bead excites a nearby acceptor bead.

Series [6] concerns Zika virus. The following applies: Vero cells, 1 mM; cited from earlier work.
Setting [7] is: Human betaherpesvirus 5, AD169 strain in HFF cells, Table 1, read-out: HCMV EC50.
Setting [8] is: Akata/Akata, Table 1, read-out: EBV EC50.
The mark [9] stands for this setting: read-out: Result for compound (EC50/UM), EBV Akata/Akata, assay order Primary.

As usually defined, the CC50 is the concentration giving 50% cytotoxicity.

SMILES strings stand for the structures. “Also recorded” adds a separate entry of the source. Where two headings read alike, the source gives them in different places.

Turning to `Nc1ccn([C@@H]2OC(CO)=C[C@H]2O)c(=O)n1` [ddhC, 3′-Deoxy-3′,4′-didehydro-cytidine, reference compound], the “antiviral activity against HCMV” value in series [1] is “does not display antiviral activity”. For the same compound, the EC50 in series [1] (setting [7]) was greater than 50 µM; in series [3] (setting [8]), 38.7 µM; in series [3] (setting [9]), 38.7 µM; in series [3] (read-out: EC50 against EBV), 7.6 to 38.7 µM. In series [2], this compound yielded a CC50 greater than 50 µM. The “activity against EBV” value in series [3] is listed as “five-fold less active than compound 8; also recorded: only weakly inhibited”. The compound further registered a CC50 at 72 h in series [4] greater than 50 µM. The “levels of HIV p24 viral capsid protein” value in series [5] is “no reduction”. For the same compound, the Zika virus proliferation result in series [6] is on record as “reduce Zika virus proliferation”.
Turning to `Nc1nc(O)c2ncn(COC(CO)CO)c2n1` [Ganciclovir, ganciclovir, reference compound], the EC50 in series [1] (Human betaherpesvirus 5, AD169, HFF, read-out: HCMV EC50) worked out at 0.55 µM. Also, in series [2] (HFF cells, Table 1, read-out: HCMV CC50), the CC50 is greater than 150 µM.
In the case of `CC(C)C(=O)OCC1=C[C@@H](O)[C@H](n2ccc(NO)nc2=O)O1` [Compound 10, 3′-Deoxy-3′,4′-didehydro-4-N-hydroxy-5′-O-isobutyroyl-cytidine], the EC50 in series [1] (Human betaherpesvirus 5, AD169, HFF, approximate, read-out: EC50 against HCMV) was roughly 0.03 µM; in series [1] (setting [7]), 0.03 µM; in series [3] (setting [8]), 29.9 µM; in series [3] (setting [9]), 29.9 µM; in series [3] (read-out: EC50 against EBV), 7.6 to 38.7 µM. Moreover, the CC50 in series [2] is greater than 50 µM. In addition, the “activity against EBV” value in series [3] is “slightly diminishes the activity”. The compound further came in with a CC50 at 72 h in series [4] greater than 50 µM.
